According to patent publication US6642209B1, “Use of adenosine compounds to alleviate or normalize pathologically hyperexcited sensory nerve function in a human patient” (priority 1990, dated 2003):
Like-named read-outs stand apart in the source and are kept apart here.

Assays:
rabbits [1] = assay: Analgesic activity of adenosine compared with morphine sulfate, tail/ear clamp and electrical stimulation
rabbits [2] = assay: Hypothermia induced under adenosine or ATP infusion; format: in vivo, rabbit
Protocol: The hypothermic and rewarming effects of an adenosine compound are tested in experimental animals prepared similarly as in the rabbit model described herein to test for anesthetic effects, except that the body temperature is allowed to fall. In animal studies (rabbit) where the room has a temperature of approximately 22° C., the body temperature will fall from a norm of about 39° C. to about 32° C. in about three hours. If the animal is cooled further with ice bags, a temperature of approximately 22° C. can be achieved in three hours without cardiovascular decompensation. Rewarming is done with the aid of a thermal blanket and heat lamp. The effective dosages of adenosine compound ranged from about 100 μg/kg/min to about 5000 μg/kg/min.
Referring to FIG. 7, the body temperature versus time plots are shown for eight different experiments. In Run 1, adenosine 500 μg/kg/min was administered intravenously to rabbits for six hours. The administration was then stopped and the body temperatures were allowed to recover.
In Run 2, ATP 500 μg/kg/min was administered intravenously for six hours. At that time, the body temperature was 31.5° C. The animal's body temperature was allowed to recover by applying external heating for four hours when (at the arrow) the external heating was removed and the temperature was allowed to fall. The body temperature again fell.
In Run 3, ATP was administered intravenously. The body temperature stabilized after ten hours at 32.5° C.
In Runs 4, 5, and 6, adenosine was administered to rabbits until the body temperature reached a constant value. In Run 4, after five hours, the body temperature stabilized at 33° C. In Run 6, after six hours, the temperature stabilized at 31.5° C.
In Run 7, five unmedicated New Zealand rabbits were anesthetized with halothane in O2 using a face mask. The ear vein was cannulated with a 22 gauge plastic catheter for drug infusion. 500 μg/kg/min to 5500 μ/kg/min adenosine was administered IV. Body temperature was monitored through a rectal thermometer. The body temperature started at approximately 38.5° C. After the application of ice bags, the temperature dropped approximately 5.5° C./hr until a minimum body temperature of approximately 22° C. was achieved.
The ice bags were removed and external heating applied. The body temperature of all rabbits returned to normal, and the rabbits were apparently normal.
In a comparison, in Run 8, six rabbits were anesthetized with isofluane and external cooling applied.

[3] = system: New Zealand white rabbits
rabbits [4] = settings: rabbit, in vivo
experimental animals = assay: Lethal to effective dose margin; format: in vivo; settings: in vivo
Protocol: In contrast to other conventional anesthetics, the adenosine compounds are useful over a wide dose range. For example, adenosine is active over a as range of between 1 to 5000 μg/kg/min. In contrast, conventional anesthetic agents, such as isoflurane, have narrow effective ranges. The fatal to effective anesthetic ratio of isoflurane is 3.02±0.13. Other reports indicate that isoflurane has about 1.88 times the safety range of halothane. […] Of course, the anesthesiologist will err on the side of administering too little and, thereby, runs the risk of underdosing the patient. This need for caution may result in an inadequately anesthetized (subanesthetized) patient during the surgical procedure.
One great advantage observed with adenosine compounds is the wide margin for error on effective therapeutic range. This advantage is exemplified by adenosine where the lethal dose is about 100 times the dose required for analgesia, and ATP where the lethal dose is greater than 150 times the amount required for analgesia.

[5] = system: New Zealand white rabbits; assay: Electrical tail stimulation screening: head lift (hypnotic) and escape movement (analgesic) thresholds; format: in vivo, rabbit; settings: for EM (purposeful escape movement, analgesic) threshold responses / HL (head lift, hypnotic) threshold responses: increasing doses, 60% N2O baseline sedation, FIG. 1
rabbits [6] = assay: Replacement of enflurane anesthesia by ATP infusion, electrical tail stimulation and tail clamp; settings: IV aminophylline
[7] = Anesthesia score chart comparing anesthetic agents for the four components of anesthesia (Table 1); parameters: key: 0 no effect; 1 minimal; 2 mostly; 3 maximal
[8] = Run 7, 500 to 5500 μg/kg/min IV, ice bags
[9] = under 60% N2O, n = 6, Mean ± SD

For Nc1ncnc2c1ncn2[C@@H]1O[C@H](CO)[C@@H](O)[C@H]1O [adenosine], the “dose that completely suppressed the responses to both kinds of stimulation (ED90)” value (rabbits [1]; under 60% N2O, infusion, n = 6) was 188 ± 20 µg/kg/min, the “body temperature at which it stabilized” value (rabbits [2]; Run 4, after five hours) was 33 °C and the “body temperature at which it stabilized” value (rabbits [2]; Run 6, after six hours) was 31.5 °C. The “minimum body temperature achieved” value (rabbits [2]; [8]) was “approximately 22 °C”, the “rate of body temperature drop” value (rabbits [2]; [8]) was “approximately 5.5 ° C./hr” and the “survival during body temperature lowering” value (rabbits [2]; external cooling, Run 7 (five rabbits), Run 8 (six rabbits)) was “All five rabbits survived”. For the same compound, the “shivering during body temperature lowering” value (rabbits [2]; external cooling, Run 7, Run 8) was “no shivering or other apparent discomfort was observed”, the “reduction of the response to the noxious stimulation” value ([3]; intrathecal administration) was “as effective as intrathecal fentanyl” and the “Δ HR” value ([3]; rabbit, in vivo) was −22 ± 5 bpm. For the same compound, the “Δ MAP” value ([3]; rabbit, in vivo) was −4 ± 5 mmHg, the “Δ PaCO2” value ([3]; rabbit, in vivo) was −6.8 ± 2.1 mmHg and the “Δ PaO2” value ([3]; rabbit, in vivo) was “+10 ± 14”. For the same compound, the “Δ RR” value ([3]; rabbit, in vivo) was −4 ± 10 bpm, the “BP (Systolic BP)” value (rabbits [4]) was 101 ± 19 mmHg and the HR (rabbits [4]) was 230 ± 24 bpm. The PaCO2 (rabbits [4]) was 25 ± 4 mmHg, the PaO2 (rabbits [4]) was 126 ± 8 mmHg and the “RR (Respiratory Rate)” value (rabbits [4]) was 85 ± 19 bpm. The “lethal dose relative to the dose required for analgesia” value (experimental animals) was “about 100 times”, the “drug accumulation or respiratory depression” value ([5]; continuous infusion for prolonged times) was “did not cause drug accumulation or respiratory depression” and the “EM (purposeful escape movement, analgesic) threshold responses” value [5] was “elevated EM responses”. For the same compound, the “HL (head lift, hypnotic) threshold responses” value [5] was “remained low”, the “hemodynamic responses to noxious stimulation” value ([5]; rabbit, in vivo) was “effectively blocked” and the “respiratory and blood gas effects” value ([5]; spontaneously breathing rabbits) was “maintained normal respiratory and blood gas parameters”.

For Cn1c(=O)c2[nH]cnc2n(C)c1=O [aminophylline, reference compound], the “reversal of adenosine induced analgesia” value (rabbits [1]; aminophylline 5-10 mg/kg) was “consistently reversed” and the “reversal of sustained analgesia after discontinuation of ATP” value (rabbits [6]) was “partially reversed”.

With FC(F)(F)C(Cl)Br (stereo not drawn) [halothane] the “Antinociception (analgesia, less pain perception)” value ([7]; Anesthesia Score 0 to 3) was 1, the “Inhibition of Stress (autonomic responses: blood pressure, heart rate; endocrine and metabolic responses)” value ([7]; Anesthesia Score 0 to 3) was 1 and the “Muscle Relaxation” value ([7]; Anesthesia Score 0 to 3) was 1. The “Sleep (unconsciousness, amnesia, sedation)” value ([7]; Anesthesia Score 0 to 3) was 3, the “TOTALS of Anesthesia Score” value ([7]; sum of the four components) was 6 and the “EM (purposeful escape movement, analgesic) threshold responses” value [5] was “consistently elevated”. For the same compound, the “HL (head lift, hypnotic) threshold responses” value [5] was “consistently elevated”.

In the case of CN1CC[C@]23c4c5ccc(O)c4O[C@H]2[C@@H](O)C=C[C@H]3[C@H]1C5.O=S(=O)(O)O [morphine sulfate], the “suppression of responses to stimulation” value (rabbits [1]; titrated IV to 2 mg/kg, under 60% N2O) is reported as “no animal had complete suppression of all responses”, the “BP (Systolic BP)” value (rabbits [1]; [9]) is reported as 105 ± 14 mmHg and the HR (rabbits [1]; [9]) is reported as 242 ± 72 bpm. The PaCO2 (rabbits [1]; [9]) was 31 ± 3 mmHg, the PaO2 (rabbits [1]; [9]) was 123 ± 14 mmHg and the “RR (Respiratory Rate)” value (rabbits [1]; [9]) was 47 ± 16 bpm.
